The values that follow come from patent US20240309038A1, “NOVEL GALACTOSIDE INHIBITOR OF GALECTINS” (GALECTO BIOTECH AB, priority 2020, published 2024).

pKd: −log10 of the molar value.

As a reminder, the pKd is the negative decadic logarithm of the Kd, by convention in mol/L.

For this assay, the target named is Gal-3 (Homo sapiens, UniProt P17931). Put plainly: Fluorescence anisotropy assay, inhibition of galectin / fluorescein tagged saccharide probe interaction. It counts as binding. How it is done:
The affinity of Example 1-59 for galectins were determined by a fluorescence anisotropy assay where the compound was used as an inhibitor of the interaction between galectin and a fluorescein tagged saccharide probe as described Sörme, P., Kahl-Knutsson, B., Huflejt, M., Nilsson, U. J., and Leffler H. (2004) Fluorescence polarization as an analytical tool to evaluate galectin-ligand interactions. Anal. Biochem. 334: 36-47, (Sarme et al., 2004)
In general terms: In fluorescence polarisation assays a small probe gives low polarisation when free and higher when bound to something large.

Chain of Gal-3 (P17931 whole entry, species assumed): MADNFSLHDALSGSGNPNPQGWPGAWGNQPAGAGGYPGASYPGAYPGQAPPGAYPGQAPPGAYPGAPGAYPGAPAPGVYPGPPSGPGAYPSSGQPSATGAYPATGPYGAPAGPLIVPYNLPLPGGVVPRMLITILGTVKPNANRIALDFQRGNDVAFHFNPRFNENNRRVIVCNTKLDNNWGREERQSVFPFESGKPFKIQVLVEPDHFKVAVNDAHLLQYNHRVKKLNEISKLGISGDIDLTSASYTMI

Regarding `Cc1nc([C@@H]2OC(CO)[C@H](O)C(n3cc(-c4cc(F)c(F)c(F)c4)cn3)C2O)n(-c2cc(Br)cnc2C#N)n1` (stereo in doubt) [Example 22, 5-Bromo-2-cyano-3-{5-{3-deoxy-3-[4-(3,4,5-trifluorophenyl)-1H-1,2-pyrazol-1-yl]-β-D-galactopyranosyl}-3-methyl-1H-1,2,4-triazol-1-yl}pyridine], the negative-log Kd (pKd) is 7.48.
In the case of `Cc1nc([C@@H]2OC(CO)[C@H](O)C(n3cc(-c4cc(F)c(F)c(F)c4)cn3)C2O)n(-c2cc(-c3cc(F)c(F)c(F)c3)ccc2C(F)(F)F)n1` (stereo in doubt) [Example 4, 1-{5-{3-Deoxy-3-[4-(3,4,5-trifluorophenyl)-1H-1,2-pyrazol-1-yl]-β-D-galactopyranosyl}-3-methyl-1H-1,2,4-triazol-1-yl}-2-(trifluoromethyl)-2-(3,4,5-trifluorophenyl)benzene], the negative logarithm of the Kd (pKd) is 6.70.
The value for `Cc1nc([C@@H]2OC(CO)[C@H](O)C(n3cc(-c4cc(F)c(F)c(F)c4)cn3)C2O)n(-c2cc(Br)ccc2C#N)n1` (stereo in doubt) [Example 26, 5-Bromo-2-cyano-1-{5-{3-deoxy-3-[4-(3,4,5-trifluorophenyl)-1H-1,2-pyrazol-1-yl]-β-D-galactopyranosyl}-3-methyl-1H-1,2,4-triazol-1-yl}benzene] was 7.82; that for `Cc1nc([C@@H]2OC(CO)[C@H](O)C(n3cc(-c4ccc(Cl)cc4)cn3)C2O)n(-c2cc(Cl)ccc2C(F)(F)F)n1` (stereo in doubt) [Example 59, 1-{5-{3-[4-(4-Chlorophenyl)-1H-1,2-pyrazol-1-yl]-3-deoxy-β-D-galactopyranosyl}-3-methyl-1H-1,2,4-triazol-1-yl}-5-chloro-2-(trifluoromethyl)benzene] was 7.29; that for `Cc1nc([C@@H]2OC(CO)[C@H](O)C(n3cc(-c4cc(F)c(F)c(F)c4)cn3)[C@@H]2O)n(-c2cnc(C#N)c(Cl)c2)n1` (stereo partly drawn) [Example 23, 3-Chloro-2-cyano-5-{5-{3-deoxy-3-[4-(3,4,5-trifluorophenyl)-1H-1,2-pyrazol-1-yl]-β-D-galactopyranosyl}-3-methyl-1H-1,2,4-triazol-1-yl}pyridine] was 6.62.
The value for `Cc1nc([C@@H]2OC(CO)[C@H](O)C(n3cc(-c4cc(F)c(F)c(F)c4)cn3)C2O)n(-c2ccc3nc(C)sc3c2F)n1` (stereo in doubt) [Example 38, 6-{5-{3-Deoxy-3-[4-(3,4,5-trifluorophenyl)-1H-1,2-pyrazol-1-yl]-β-D-galactopyranosyl}-3-methyl-1H-1,2,4-triazol-1-yl}-7-fluoro-2-methylbenzothiazole] was 6.68.
For the compound `Cc1nc([C@@H]2OC(CO)[C@H](O)C(n3cc(-c4cc(F)ccn4)cn3)C2O)n(-c2cc(Cl)ccc2C(F)(F)F)n1` (stereo in doubt) [Example 7, 5-Chloro-1-{5-{3-deoxy-3-[4-(4-fluoropyridin-2-yl)-1H-1,2-pyrazol-1-yl]-β-D-galactopyranosyl}-3-methyl-1H-1,2,4-triazol-1-yl}-2-(trifluoromethyl)benzene], the pKd was 7.09.
In turn, `Cc1nc([C@@H]2OC(CO)[C@H](O)C(n3cc(-c4cc(F)c(F)c(F)c4)c(C)n3)C2O)n(-c2cc(Cl)ccc2C(F)(F)F)n1` (stereo in doubt) [Example 49, 5-Chloro-1-{5-{3-deoxy-3-[4-(3,4,5-trifluorophenyl)-3-methyl-1H-1,2-pyrazol-1-yl]-β-D-galactopyranosyl}-3-methyl-1H-1,2,4-triazol-1-yl}-2-(trifluoromethyl)benzene] showed a negative logarithm of the Kd (pKd) of 7.89.
In the case of `Cc1nc([C@@H]2OC(CO)[C@H](O)C(n3cc(-c4cc(F)c(F)c(F)c4)cn3)C2O)n(-c2cc(Cl)cnc2C#N)n1` (stereo in doubt) [Example 21, 5-Chloro-2-cyano-3-{5-{3-deoxy-3-[4-(3,4,5-trifluorophenyl)-1H-1,2-pyrazol-1-yl]-β-D-galactopyranosyl}-3-methyl-1H-1,2,4-triazol-1-yl}pyridine], the pKd is 7.09.
For `Cc1nc([C@@H]2OC(CO)[C@H](O)C(n3cc(-c4cc(F)c(Cl)c(F)c4)c(C(=O)O)n3)C2O)n(-c2cc(Cl)ccc2C(F)(F)F)n1` (stereo in doubt) [Example 30, 1-{5-{3-[3-Carboxy-4-(4-chloro-3,5-difluorophenyl)-1H-1,2-pyrazol-1-yl]-3-deoxy-β-D-galactopyranosyl}-3-methyl-1H-1,2,4-triazol-1-yl}-5-chloro-2-(trifluoromethyl)benzene], the negative logarithm of the Kd (pKd) is 8.22.
`Cc1nc([C@@H]2OC(CO)[C@H](O)C(n3cc(-c4cc(F)c(F)c(F)c4)cn3)C2O)n(-c2cc(Cl)cnc2C(F)(F)F)n1` (stereo in doubt) [Example 20, 5-Chloro-3-{5-{3-deoxy-3-[4-(3,4,5-trifluorophenyl)-1H-1,2-pyrazol-1-yl]-β-D-galactopyranosyl}-3-methyl-1H-1,2,4-triazol-1-yl}-2-(trifluoromethyl)pyridine] showed a negative-log Kd (pKd) of 7.96.
As for `Cc1nc([C@@H]2OC(CO)[C@H](O)C(n3cc(-c4cc(F)c(F)c(F)c4)cn3)C2O)n(-c2cc3sc(C)nc3cc2F)n1` (stereo in doubt) [Example 37, 6-{5-{3-Deoxy-3-[4-(3,4,5-trifluorophenyl)-1H-1,2-pyrazol-1-yl]-β-D-galactopyranosyl}-3-methyl-1H-1,2,4-triazol-1-yl}-5-fluoro-2-methylbenzothiazole], the figure is 7.80; as for `CCc1nc2ccc(-n3nc(C)nc3[C@@H]3OC(CO)[C@H](O)C(n4cc(-c5cc(F)c(F)c(F)c5)cn4)C3O)cc2s1` (stereo in doubt) [Example 35, 6-{5-{3-Deoxy-3-[4-(3,4,5-trifluorophenyl)-1H-1,2-pyrazol-1-yl]-β-D-galactopyranosyl}-3-methyl-1H-1,2,4-triazol-1-yl}-2-ethylbenzothiazole], 7.92.
As for `Cc1nc2ccc(-n3cnnc3[C@@H]3OC(CO)[C@H](O)C(n4cc(-c5cc(F)c(F)c(F)c5)cn4)[C@@H]3O)cc2s1` (stereo partly drawn) [Example 2, 6-{3-{3-Deoxy-3-[4-(3,4,5-trifluorophenyl)-1H-1,2-pyrazol-1-yl]-β-D-galactopyranosyl}-4H-1,2,4-triazol-4-yl}-2-methylbenzothiazole], the figure is 7.41; as for `Cc1nc([C@@H]2OC(CO)[C@H](O)C(n3cc(-c4cc(F)c(F)c(F)c4)c(-c4ccccc4F)n3)C2O)n(-c2cc(Cl)ccc2C(F)(F)F)n1` (stereo in doubt) [Example 48, 5-Chloro-1-{5-{3-deoxy-3-[4-(3,4,5-trifluorophenyl)-3-(2-fluorophenyl)-1H-1,2-pyrazol-1-yl]-β-D-galactopyranosyl}-3-methyl-1H-1,2,4-triazol-1-yl}-2-(trifluoromethyl)benzene], 7.27; as for `Cc1nc([C@@H]2OC(CO)[C@H](O)C(n3cc(-c4cc(F)c(F)c(F)c4)cn3)C2O)n(-c2cc3sc(C)nc3cc2Br)n1` (stereo in doubt) [Example 43, 5-Bromo-6-{5-{3-deoxy-3-[4-(3,4,5-trifluorophenyl)-1H-1,2-pyrazol-1-yl]-β-D-galactopyranosyl}-3-methyl-1H-1,2,4-triazol-1-yl}-2-methylbenzothiazole], 7.96.
In turn, `Cc1nc([C@@H]2OC(CO)[C@H](O)C(n3cc(-c4cc(F)c(Cl)cn4)cn3)C2O)n(-c2cc(Cl)ccc2C(F)(F)F)n1` (stereo in doubt) [Example 14, 1-{5-{3-[4-(5-Chloro-4-fluoropyridin-2-yl)-1H-1,2-pyrazol-1-yl]-3-deoxy-β-D-galactopyranosyl}-3-methyl-1H-1,2,4-triazol-1-yl}-5-chloro-2-(trifluoromethyl)benzene] had a negative-log Kd (pKd) of 7.62.
The value for `C#Cc1c(F)cc(-c2cnn(C3C(O)[C@H](c4nc(C)nn4-c4cc(Cl)ccc4C(F)(F)F)OC(CO)[C@@H]3O)c2)cc1F` (stereo in doubt) [Example 17, 5-Chloro-1-{5-{3-deoxy-3-[4-(4-ethynyl-3,5-difluorophenyl)-1H-1,2-pyrazol-1-yl]-β-D-galactopyranosyl}-3-methyl-1H-1,2,4-triazol-1-yl}-2-(trifluoromethyl)benzene] was 7.22.
As for `C#CCc1c(F)cc(-c2cnn(C3C(O)[C@H](c4nc(C)nn4-c4cc(Cl)ccc4C(F)(F)F)OC(CO)[C@@H]3O)c2)cc1F` (stereo in doubt) [Example 18, 5-Chloro-1-{5-{3-deoxy-3-{4-[3,5-difluoro-4-(2-propyn-1-yl)phenyl]-1H-1,2-pyrazol-1-yl}-β-D-galactopyranosyl}-3-methyl-1H-1,2,4-triazol-1-yl}-2-(trifluoromethyl)benzene], the figure is 7.59.
The value for `Cc1nc([C@@H]2OC(CO)[C@H](O)C(n3cc(-c4cc(F)c(F)c(F)c4)cn3)C2O)n(-c2ccc3ncsc3c2)n1` (stereo in doubt) [Example 34, 6-{5-{3-Deoxy-3-[4-(3,4,5-trifluorophenyl)-1H-1,2-pyrazol-1-yl]-β-D-galactopyranosyl}-3-methyl-1H-1,2,4-triazol-1-yl}benzothiazole] was 8.05; that for `Cc1nc([C@@H]2OC(CO)[C@H](O)C(n3cc(-c4ccc(C)c(F)c4)cn3)C2O)n(-c2cc(Cl)ccc2C(F)(F)F)n1` (stereo in doubt) [Example 57, 5-Chloro-1-{5-{3-deoxy-3-[4-(3-fluoro-4-methylphenyl)-1H-1,2-pyrazol-1-yl]-β-D-galactopyranosyl}-3-methyl-1H-1,2,4-triazol-1-yl}-2-(trifluoromethyl)benzene] was 7.96; that for `Cc1nc([C@@H]2OC(CO)[C@H](O)C(n3cc(-c4cc(C)c(Cl)cn4)cn3)C2O)n(-c2cc(Cl)ccc2C(F)(F)F)n1` (stereo in doubt) [Example 16, 1-{5-{3-[4-(5-Chloro-4-methylpyridin-2-yl)-1H-1,2-pyrazol-1-yl]-3-deoxy-β-D-galactopyranosyl}-3-methyl-1H-1,2,4-triazol-1-yl}-5-chloro-2-(trifluoromethyl)benzene] was 6.85.
